Assays:
[1] = xn = mol fraction of the nth substance listed; settings: 101 kPa, Liquid; for viscosity: Stabinger Viscometer; for mass density: Vibrating tube method
[2] = refractive index (Na D-line) (dimensionless); xn = mol fraction of the nth substance listed; settings: 101 kPa, Liquid, Standard Abbe refractometry

CCn1cc[n+](C)c1.O=C([O-])[C@@H]1CCCN1 [1-ethyl-3-methyl-1H-imidazolium L-prolinate] + CCn1cc[n+](C)c1.N#C[C-](C#N)C#N
Settings	mass density, [1] [kg/m3]	refractive index, [2]	viscosity, [1] [mPa·s]
293.15 K, x2 = 0	1145.9	1.52291	1928.4
293.15 K, x2 = 0.2501	1131.7	1.52057	731.38
293.15 K, x2 = 0.5002	1116.4	1.5191	183.74
293.15 K, x2 = 0.7501	1100.6	1.51665	49.1
298.15 K, x2 = 0	1142.8	1.52151	1194.6
298.15 K, x2 = 0.2501	1128.4	1.51913	474.82
298.15 K, x2 = 0.5002	1113.1	1.5176	131.11
298.15 K, x2 = 0.7501	1097.2	1.51508	38.6
303.15 K, x2 = 0	1139.6	1.52009	771.51
303.15 K, x2 = 0.2501	1125.1	1.51769	320.94
303.15 K, x2 = 0.5002	1109.8	1.51611	96.6
303.15 K, x2 = 0.7501	1093.8	1.51349	30.96
308.15 K, x2 = 0	1136.4	1.5187	517.61
308.15 K, x2 = 0.2501	1121.8	1.51622	224.85
308.15 K, x2 = 0.5002	1106.6	1.5146	73.15
308.15 K, x2 = 0.7501	1090.4	1.5119	25.29
313.15 K, x2 = 0	1133.2	1.51731	359.21
313.15 K, x2 = 0.2501	1118.7	1.51477	162.54
313.15 K, x2 = 0.5002	1103.3	1.51306	56.72
313.15 K, x2 = 0.7501	1087	1.51033	21
318.15 K, x2 = 0	1130.1	1.51591	256.92
318.15 K, x2 = 0.2501	1115.5	1.51333	120.81
318.15 K, x2 = 0.5002	1100.1	1.51153	44.93
318.15 K, x2 = 0.7501	1083.7	1.50875	17.68
323.15 K, x2 = 0	1127.1	1.51454	188.66
323.15 K, x2 = 0.2501	1112.4	1.51191	92
323.15 K, x2 = 0.5002	1096.8	1.51006	36.25
323.15 K, x2 = 0.7501	1080.3	1.50717	15.08
328.15 K, x2 = 0	1124	1.51315	141.76
328.15 K, x2 = 0.2501	1109.3	1.51046	71.61
328.15 K, x2 = 0.5002	1093.6	1.50858	29.73
328.15 K, x2 = 0.7501	1077	1.50561	13
333.15 K, x2 = 0	1121	1.51177	108.85
333.15 K, x2 = 0.2501	1106.2	1.50899	56.8
333.15 K, x2 = 0.5002	1090.4	1.5071	24.75
333.15 K, x2 = 0.7501	1073.6	1.504	11.32
338.15 K, x2 = 0	1118	1.51035	85.12
338.15 K, x2 = 0.2501	1103.1	1.50752	45.83
338.15 K, x2 = 0.5002	1087.2	1.50564	20.87
338.15 K, x2 = 0.7501	1070.3	1.50249	9.95
343.15 K, x2 = 0	1115	1.50897	67.69
343.15 K, x2 = 0.2501	1100	1.50611	37.55
343.15 K, x2 = 0.5002	1084	1.50412	17.8
343.15 K, x2 = 0.7501	1067	1.50096	8.82
348.15 K, x2 = 0	1112	1.50757	54.73
348.15 K, x2 = 0.2501	1096.9	1.50461	31.2
348.15 K, x2 = 0.5002	1080.8	1.50269	15.35
348.15 K, x2 = 0.7501	1063.8	1.49941	7.87
353.15 K, x2 = 0	1109.1	1.5062	44.89
353.15 K, x2 = 0.2501	1093.8	1.50319	26.24
353.15 K, x2 = 0.5002	1077.7	1.50126	13.37
353.15 K, x2 = 0.7501	1060.5	1.49791	7.07
